Values quoted from earlier work as cited in patent publication US20120171125A1, “Methods for Enhancing the Cognitive Function” (UCB PHARMA, S.A., priority 2009, published 2012).

Columns and labels:
epilepsy = conditions: in vivo
SV2A = SV2A (Homo sapiens, UniProt Q7L0J3)
cognitive function = conditions: animals and humans

SV2A, sequence (Q7L0J3 whole entry, species assumed): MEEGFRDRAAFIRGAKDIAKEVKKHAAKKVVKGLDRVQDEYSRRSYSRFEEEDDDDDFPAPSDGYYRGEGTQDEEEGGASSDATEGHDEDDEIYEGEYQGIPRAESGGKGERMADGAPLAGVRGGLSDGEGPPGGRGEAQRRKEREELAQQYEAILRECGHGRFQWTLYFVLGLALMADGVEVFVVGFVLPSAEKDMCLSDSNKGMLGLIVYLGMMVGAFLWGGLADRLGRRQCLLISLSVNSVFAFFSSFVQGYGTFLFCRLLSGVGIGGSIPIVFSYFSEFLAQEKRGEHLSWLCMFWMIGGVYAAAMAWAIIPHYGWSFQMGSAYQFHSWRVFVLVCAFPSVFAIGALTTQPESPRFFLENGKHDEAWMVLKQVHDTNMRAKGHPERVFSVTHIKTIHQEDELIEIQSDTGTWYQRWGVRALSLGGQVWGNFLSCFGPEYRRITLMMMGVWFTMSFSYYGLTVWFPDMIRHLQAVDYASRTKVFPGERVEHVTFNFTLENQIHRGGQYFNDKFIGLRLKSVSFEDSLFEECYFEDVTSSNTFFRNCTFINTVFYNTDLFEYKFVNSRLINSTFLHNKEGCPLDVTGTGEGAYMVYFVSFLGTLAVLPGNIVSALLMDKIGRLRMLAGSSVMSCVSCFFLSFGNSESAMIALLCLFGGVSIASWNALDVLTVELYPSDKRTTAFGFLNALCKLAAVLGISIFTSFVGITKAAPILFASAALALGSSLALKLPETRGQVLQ

## CC[C@H](C(N)=O)N1CCCC1=O [(R)-(+)-alpha-ethyl-2-oxo-1-pyrrolidine acetamide]
epilepsy
  antiepileptic activity: completely lacks activity

## CC[C@@H](C(N)=O)N1C[C@H](C=C(F)F)CC1=O [Seletracetam, (2S)-2-[(4S)-4-(2,2-difluorovinyl)-2-oxo-pyrrolidinyl]butanamide]
epilepsy
  antiepileptic activity: very potent antiepileptic activities
SV2A
  affinity / binding to SV2A: potent affinity to SV2A

## CCC[C@@H]1CC(=O)N([C@@H](CC)C(N)=O)C1 [brivaracetam, (2S)-2-[(4R)-2-oxo-4-propyl-pyrrolidin-1-yl]butanamide]
epilepsy
  antiepileptic activity: very potent antiepileptic activities
SV2A
  affinity / binding to SV2A: potent affinity to SV2A

## CC[C@@H](C(N)=O)N1CCCC1=O [levetiracetam, (S)-(−)-alpha-ethyl-2-oxo-1-pyrrolidine acetamide]
Cognitive function
  impact on the cognitive function: no impact on the cognitive function

## NC(=O)CN1CCCC1=O [piracetam]
SV2A
  affinity / binding to SV2A: does not bind to SV2A
